In the NIST ThermoML archive (doi:10.1021/je2008582):

Conditions: Liquid, Vibrating tube method

CCCCCCCC/C=C\CCCCCCCC(=O)OC [methyl cis-9-octadecenoate]
Conditions	mass density [kg/m3]
270 K, 490 kPa	892.3
270 K, 990 kPa	892.6
270 K, 1990 kPa	893.2
270 K, 2990 kPa	893.7
270 K, 3990 kPa	894.3
270 K, 4990 kPa	894.8
270 K, 9990 kPa	897.4
270 K, 19990 kPa	902.4
270 K, 29990 kPa	907.1
270 K, 39990 kPa	911.7
270 K, 49830 kPa	915.9
290 K, 490 kPa	877.7
290 K, 1000 kPa	878
290 K, 2000 kPa	878.6
290 K, 3000 kPa	879.2
290 K, 3990 kPa	879.8
290 K, 4990 kPa	880.4
290 K, 10000 kPa	883.3
290 K, 19990 kPa	888.7
290 K, 29990 kPa	893.8
290 K, 39990 kPa	898.7
290 K, 49960 kPa	903.4
310 K, 490 kPa	863.3
310 K, 990 kPa	863.6
310 K, 2000 kPa	864.3
310 K, 3000 kPa	865
310 K, 4000 kPa	865.6
310 K, 5000 kPa	866.2
310 K, 9990 kPa	869.3
310 K, 20000 kPa	875.3
310 K, 29990 kPa	880.8
310 K, 39990 kPa	886.1
310 K, 49990 kPa	891.1
330 K, 500 kPa	849
330 K, 1000 kPa	849.3
330 K, 2000 kPa	850.1
330 K, 3000 kPa	850.8
330 K, 3990 kPa	851.5
330 K, 4990 kPa	852.2
330 K, 10000 kPa	855.6
330 K, 19990 kPa	862
330 K, 29990 kPa	868
330 K, 39990 kPa	873.6
330 K, 49990 kPa	878.9
350 K, 500 kPa	834.6
350 K, 990 kPa	835
350 K, 2000 kPa	835.8
350 K, 2990 kPa	836.6
350 K, 3990 kPa	837.3
350 K, 5000 kPa	838.1
350 K, 9990 kPa	841.8
350 K, 20000 kPa	848.8
350 K, 30000 kPa	855.3
350 K, 40000 kPa	861.3
350 K, 49980 kPa	867
370 K, 500 kPa	820.1
370 K, 990 kPa	820.6
370 K, 1990 kPa	821.4
370 K, 2990 kPa	822.3
370 K, 3990 kPa	823.2
370 K, 5010 kPa	824
370 K, 10000 kPa	828.1
370 K, 20010 kPa	835.7
370 K, 29990 kPa	842.6
370 K, 39990 kPa	849.1
370 K, 49970 kPa	855.1
390 K, 490 kPa	805.7
390 K, 990 kPa	806.2
390 K, 2000 kPa	807.1
390 K, 3000 kPa	808.1
390 K, 3990 kPa	809
390 K, 5000 kPa	810
390 K, 10000 kPa	814.5
390 K, 19990 kPa	822.7
390 K, 29980 kPa	830.2
390 K, 40000 kPa	837.2
390 K, 49990 kPa	843.6
410 K, 490 kPa	791
410 K, 990 kPa	791.6
410 K, 2000 kPa	792.7
410 K, 3000 kPa	793.7
410 K, 3990 kPa	794.8
410 K, 5000 kPa	795.8
410 K, 10000 kPa	800.8
410 K, 20000 kPa	809.8
410 K, 30000 kPa	817.9
410 K, 39990 kPa	825.3
410 K, 50000 kPa	832.2
430 K, 500 kPa	776.2
430 K, 1000 kPa	776.8
430 K, 1990 kPa	778
430 K, 3000 kPa	779.2
430 K, 3990 kPa	780.3
430 K, 4990 kPa	781.5
430 K, 9990 kPa	786.9
430 K, 19990 kPa	796.7
430 K, 29990 kPa	805.5
430 K, 39990 kPa	813.5
430 K, 49990 kPa	820.8
450 K, 490 kPa	761.2
450 K, 1000 kPa	761.9
450 K, 1990 kPa	763.2
450 K, 2990 kPa	764.5
450 K, 3990 kPa	765.8
450 K, 5000 kPa	767.1
450 K, 10000 kPa	773.1
450 K, 20000 kPa	783.9
450 K, 29990 kPa	793.3
450 K, 39990 kPa	801.9
450 K, 50010 kPa	809.7
470 K, 490 kPa	746.3
470 K, 990 kPa	747
470 K, 2000 kPa	748.6
470 K, 2990 kPa	750
470 K, 3990 kPa	751.5
470 K, 5010 kPa	752.9
470 K, 10000 kPa	759.5
470 K, 19990 kPa	771.2
470 K, 29990 kPa	781.5
470 K, 39990 kPa	790.6
470 K, 49970 kPa	798.8
